# Data as given in ChEMBL document CHEMBL4837240 (J Med Chem, 2021).
# Calls of active or inactive are those of the source. The rule behind the calls is not given here.
# Experiments:
# [1] = Toxicity in BALB/c mouse xenografted with MDA-MB-231 cells assessed as change in liver at 300 mg/kg, po by hematoxylin and eosin staining based analysis; assay type: organism-based; details: in vivo
# [2] = biological target: Vascular endothelial growth factor receptor 3 (Mus musculus) (UniProt P35917); test: In vivo inhibition of VEGFR3 phosphorylation in BALB/c mouse xenografted with MDA-MB-231 cells assessed as decrease in AKT phosphorylation at 25 mg/kg, po by immunohistochemistry analysis; assay type: functional, organism-based
# Chain of Vascular endothelial growth factor receptor 3 (Mus musculus) (P35917 whole entry): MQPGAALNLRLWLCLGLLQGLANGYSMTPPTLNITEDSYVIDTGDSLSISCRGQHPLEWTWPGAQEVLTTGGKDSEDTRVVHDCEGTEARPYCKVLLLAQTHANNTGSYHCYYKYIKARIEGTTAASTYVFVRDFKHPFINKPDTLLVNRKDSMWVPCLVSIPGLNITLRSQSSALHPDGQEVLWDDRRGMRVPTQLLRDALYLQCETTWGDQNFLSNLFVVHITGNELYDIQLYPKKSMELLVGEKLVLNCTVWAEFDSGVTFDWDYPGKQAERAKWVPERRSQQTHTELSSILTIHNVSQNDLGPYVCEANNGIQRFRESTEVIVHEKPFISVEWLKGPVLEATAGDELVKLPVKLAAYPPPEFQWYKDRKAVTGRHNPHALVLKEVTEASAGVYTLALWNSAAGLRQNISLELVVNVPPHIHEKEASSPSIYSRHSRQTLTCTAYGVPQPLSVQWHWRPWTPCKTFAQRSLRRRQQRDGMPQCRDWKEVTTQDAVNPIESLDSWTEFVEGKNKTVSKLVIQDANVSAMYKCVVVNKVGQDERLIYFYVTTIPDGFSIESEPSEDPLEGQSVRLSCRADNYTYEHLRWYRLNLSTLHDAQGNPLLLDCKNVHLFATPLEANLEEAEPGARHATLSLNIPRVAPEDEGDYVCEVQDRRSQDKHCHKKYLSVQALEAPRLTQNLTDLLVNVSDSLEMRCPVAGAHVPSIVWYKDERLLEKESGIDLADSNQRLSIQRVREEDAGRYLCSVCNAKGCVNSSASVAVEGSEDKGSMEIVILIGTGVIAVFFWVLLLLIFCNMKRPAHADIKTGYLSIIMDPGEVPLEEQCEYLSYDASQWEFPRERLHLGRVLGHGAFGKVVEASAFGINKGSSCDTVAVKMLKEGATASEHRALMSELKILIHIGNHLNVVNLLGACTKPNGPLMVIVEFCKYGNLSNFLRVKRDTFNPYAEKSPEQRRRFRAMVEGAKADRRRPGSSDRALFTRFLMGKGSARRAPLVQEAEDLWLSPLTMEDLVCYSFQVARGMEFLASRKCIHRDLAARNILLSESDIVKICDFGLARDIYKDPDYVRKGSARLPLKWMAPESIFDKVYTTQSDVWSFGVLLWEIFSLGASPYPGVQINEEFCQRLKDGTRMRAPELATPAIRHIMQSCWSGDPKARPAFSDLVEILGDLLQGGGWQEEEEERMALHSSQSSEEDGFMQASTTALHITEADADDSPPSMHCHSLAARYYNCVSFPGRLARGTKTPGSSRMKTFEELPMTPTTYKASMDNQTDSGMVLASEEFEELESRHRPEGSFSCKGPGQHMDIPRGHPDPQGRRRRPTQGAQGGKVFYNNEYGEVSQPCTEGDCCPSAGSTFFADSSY
# [3] = biological target: T1, Vascular endothelial growth factor receptor 1 (Mus musculus) (UniProt P35969); test: In vivo inhibition of VEGFR1 phosphorylation in BALB/c mouse xenografted with MDA-MB-231 cells at 25 mg/kg, po by immunohistochemistry analysis; assay type: functional, organism-based
# T1 sequence (whole entry): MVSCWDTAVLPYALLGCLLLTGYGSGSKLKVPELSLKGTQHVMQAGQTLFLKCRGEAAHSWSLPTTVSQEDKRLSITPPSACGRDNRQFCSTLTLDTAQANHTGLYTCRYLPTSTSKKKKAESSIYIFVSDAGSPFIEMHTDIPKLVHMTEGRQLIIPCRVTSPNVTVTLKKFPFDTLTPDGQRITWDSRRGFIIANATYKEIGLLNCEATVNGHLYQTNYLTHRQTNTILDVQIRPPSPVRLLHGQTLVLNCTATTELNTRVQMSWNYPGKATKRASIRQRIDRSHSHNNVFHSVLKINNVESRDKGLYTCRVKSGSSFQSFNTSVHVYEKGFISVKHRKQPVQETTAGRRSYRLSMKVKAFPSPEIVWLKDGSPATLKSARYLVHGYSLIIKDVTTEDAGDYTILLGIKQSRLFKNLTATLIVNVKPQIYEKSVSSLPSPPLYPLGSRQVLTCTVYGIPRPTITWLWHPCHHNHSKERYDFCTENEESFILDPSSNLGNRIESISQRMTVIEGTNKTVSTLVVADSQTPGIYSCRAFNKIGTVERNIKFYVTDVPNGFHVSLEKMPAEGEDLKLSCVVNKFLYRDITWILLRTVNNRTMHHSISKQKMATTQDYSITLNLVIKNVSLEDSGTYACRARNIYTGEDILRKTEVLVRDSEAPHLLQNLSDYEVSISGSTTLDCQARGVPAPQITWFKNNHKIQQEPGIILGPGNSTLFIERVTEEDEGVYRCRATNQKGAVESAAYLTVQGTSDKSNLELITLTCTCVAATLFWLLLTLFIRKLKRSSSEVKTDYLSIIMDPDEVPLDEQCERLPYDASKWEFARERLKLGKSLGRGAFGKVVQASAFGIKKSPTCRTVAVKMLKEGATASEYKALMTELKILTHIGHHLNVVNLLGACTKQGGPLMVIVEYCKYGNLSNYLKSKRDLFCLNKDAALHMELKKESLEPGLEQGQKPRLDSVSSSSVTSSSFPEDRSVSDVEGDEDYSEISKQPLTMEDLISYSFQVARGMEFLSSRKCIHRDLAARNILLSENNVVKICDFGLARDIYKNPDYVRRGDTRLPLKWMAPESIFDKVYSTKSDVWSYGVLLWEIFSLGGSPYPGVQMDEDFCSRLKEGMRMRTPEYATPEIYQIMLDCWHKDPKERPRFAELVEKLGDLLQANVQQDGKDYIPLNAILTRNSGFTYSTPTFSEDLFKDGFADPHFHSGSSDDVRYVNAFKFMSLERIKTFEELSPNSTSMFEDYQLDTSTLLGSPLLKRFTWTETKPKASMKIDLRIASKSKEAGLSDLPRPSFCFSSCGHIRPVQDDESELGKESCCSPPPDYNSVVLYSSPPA
# [4] = Toxicity in po dosed BALB/c mouse xenografted with MDA-MB-231 cells assessed as maximum tolerated dose; assay type: organism-based; details: in vivo
# Mus musculus = test: In vivo inhibition of VEGFR2 phosphorylation in BALB/c mouse xenografted with MDA-MB-231 cells at 25 mg/kg, po by immunohistochemistry analysis; assay type: functional, organism-based
# [5] = biological target: Tyrosine-protein kinase BTK (Homo sapiens, UniProt Q06187); test: Inhibition of human BTK
# Chain of Tyrosine-protein kinase BTK (Q06187 whole entry): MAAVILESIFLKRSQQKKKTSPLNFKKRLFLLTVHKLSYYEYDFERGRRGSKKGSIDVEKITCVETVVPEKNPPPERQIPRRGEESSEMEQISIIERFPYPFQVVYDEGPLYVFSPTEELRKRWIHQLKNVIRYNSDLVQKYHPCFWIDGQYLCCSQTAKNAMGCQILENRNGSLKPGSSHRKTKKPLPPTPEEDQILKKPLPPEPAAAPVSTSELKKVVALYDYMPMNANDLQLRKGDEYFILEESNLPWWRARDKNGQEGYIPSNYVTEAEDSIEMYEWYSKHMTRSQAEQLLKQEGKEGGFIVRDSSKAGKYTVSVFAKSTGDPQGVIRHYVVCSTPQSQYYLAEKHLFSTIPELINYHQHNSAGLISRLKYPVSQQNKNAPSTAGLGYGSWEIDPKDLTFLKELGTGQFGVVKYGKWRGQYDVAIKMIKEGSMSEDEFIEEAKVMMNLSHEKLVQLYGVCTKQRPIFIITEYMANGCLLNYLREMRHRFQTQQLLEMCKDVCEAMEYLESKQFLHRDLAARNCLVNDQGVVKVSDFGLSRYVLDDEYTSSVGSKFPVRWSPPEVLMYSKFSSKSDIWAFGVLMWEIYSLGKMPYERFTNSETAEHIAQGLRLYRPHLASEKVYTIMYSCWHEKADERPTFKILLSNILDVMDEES
# [6] = Antitumor activity against human MDA-MB-231 cells xenografted in BALB/c mouse assessed as tumor growth inhibition at 50 mg/kg, po relative to control; assay type: functional; details: read-out: TGI
# [7] = biological target: T2, Vascular endothelial growth factor receptor 3 (Homo sapiens, UniProt P35916); test: Inhibition of VEGFR3 in human MDA-MB-231 cells assessed as inhibition of STAT5 phosphorylation at 2.5 uM incubated for 24 hrs by Western blot analysis; assay type: cell-based
# T2 sequence (P35916 whole entry): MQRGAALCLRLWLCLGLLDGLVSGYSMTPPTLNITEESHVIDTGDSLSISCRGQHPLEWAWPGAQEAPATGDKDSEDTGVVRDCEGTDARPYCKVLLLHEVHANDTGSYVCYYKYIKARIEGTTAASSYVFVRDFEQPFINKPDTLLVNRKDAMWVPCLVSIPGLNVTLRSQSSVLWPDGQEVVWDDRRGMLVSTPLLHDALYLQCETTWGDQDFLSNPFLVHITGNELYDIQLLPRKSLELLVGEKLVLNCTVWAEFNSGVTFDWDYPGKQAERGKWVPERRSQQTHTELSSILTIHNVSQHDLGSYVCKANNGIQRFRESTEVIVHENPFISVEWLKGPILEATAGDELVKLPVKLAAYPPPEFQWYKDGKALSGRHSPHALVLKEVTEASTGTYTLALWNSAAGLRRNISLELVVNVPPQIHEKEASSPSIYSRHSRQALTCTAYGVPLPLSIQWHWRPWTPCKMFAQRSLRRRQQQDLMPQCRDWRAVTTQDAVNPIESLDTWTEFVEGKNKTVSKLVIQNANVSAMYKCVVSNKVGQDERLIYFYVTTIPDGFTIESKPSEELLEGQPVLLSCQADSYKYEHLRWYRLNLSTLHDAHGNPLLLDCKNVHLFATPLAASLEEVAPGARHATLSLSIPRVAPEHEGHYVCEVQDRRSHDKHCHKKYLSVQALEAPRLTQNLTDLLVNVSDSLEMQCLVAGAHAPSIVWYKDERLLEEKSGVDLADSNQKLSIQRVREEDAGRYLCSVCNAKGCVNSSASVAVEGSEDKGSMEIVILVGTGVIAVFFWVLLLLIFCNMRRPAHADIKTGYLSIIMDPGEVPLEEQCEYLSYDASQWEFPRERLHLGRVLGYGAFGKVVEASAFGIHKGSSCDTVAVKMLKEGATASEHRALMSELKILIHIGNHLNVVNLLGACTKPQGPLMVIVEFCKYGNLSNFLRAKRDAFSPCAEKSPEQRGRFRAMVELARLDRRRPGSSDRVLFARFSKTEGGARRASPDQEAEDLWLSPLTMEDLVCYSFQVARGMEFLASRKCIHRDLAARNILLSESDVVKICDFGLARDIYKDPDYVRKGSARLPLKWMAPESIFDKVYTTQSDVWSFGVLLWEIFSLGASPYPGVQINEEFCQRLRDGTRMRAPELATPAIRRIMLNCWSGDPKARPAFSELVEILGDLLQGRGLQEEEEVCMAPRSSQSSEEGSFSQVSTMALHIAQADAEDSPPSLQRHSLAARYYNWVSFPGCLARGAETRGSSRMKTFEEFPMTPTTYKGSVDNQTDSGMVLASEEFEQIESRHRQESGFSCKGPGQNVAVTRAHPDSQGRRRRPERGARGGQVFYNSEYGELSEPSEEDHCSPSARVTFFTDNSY
# [8] = biological target: T2, Vascular endothelial growth factor receptor 3; test: Inhibition of VEGFR3 in human MDA-MB-436 cells assessed as inhibition of ERK1/2 phosphorylation at 2.5 uM incubated for 24 hrs by Western blot analysis; assay type: cell-based
# HDLEC = test: Upregulation of E-cadherin protein expression in human dermal lymphatic endothelial cells incubated for 24 hrs by Western blot analysis; assay type: functional
# MDA-MB-231 [9] = test: Induction of apoptosis in human MDA-MB-231 cells assessed as increase in apoptotic cells incubated for 24 hrs by Hoechst 33258 staining under a fluorescence microscopy; assay type: functional, cell-based
# [10] = Cmax in Sprague-Dawley rat at 1 mg/kg, iv by LC-MS analysis; assay type: ADME, organism-based; design: route intravenous, dose 1 mg/kg; details: in vivo
# MDA-MB-231 [11] = test: Inhibition of colony formation in human MDA-MB-231 cells at 2.5 uM incubated for 24 hrs by clonogenic assay; assay type: functional
# [12] = biological target: T2, Vascular endothelial growth factor receptor 3; test: Inhibition of human FLT4/VEGFR3 assessed as residual kinase activity at 1 uM relative to control
# MDA-MB-231 [13] = test: Induction of apoptosis in human MDA-MB-231 cells assessed as downregulation of Bcl2 expression up to 10 uM incubated for 24 hrs by Western blotting analysis; assay type: functional, cell-based; details: dose microM <=10, time 24.0 hrs
# MDA-MB-436 = test: Induction of apoptosis in human MDA-MB-436 cells assessed as accumulation at G1 phase incubated for 48 hrs by flow cytometry; assay type: functional, cell-based
# [14] = Toxicity in BALB/c mouse xenografted with MDA-MB-231 cells assessed as change in spleen at 300 mg/kg, po by hematoxylin and eosin staining based analysis; assay type: organism-based; details: in vivo
structure (smiles),measurement,setting,value
CN1CCN(c2ccc(-c3cc4c(N5CCN(C(=O)Nc6ccc(Cl)c(C(F)(F)F)c6)CC5)ncnc4s3)cc2)CC1,Activity,[1],Non-Toxic
same,Activity,[2],Active
same,Activity,[3],inactive
same,MTD,[4],300 mg/kg
same,Activity,Mus musculus,inactive
same,IC50,[5],718 nM
same,inhibition in vivo at 50 mg/kg,[6],61.9%
same,inhibition,[7],Active
same,inhibition,[8],Active
same,Activity,HDLEC,Active
same,Activity,MDA-MB-231 [9],Dose-Dependent Effect
same,Cmax,[10],420 ng/mL
same,inhibition at 2.5 µM,MDA-MB-231 [11],100%
same,Activity,[12],0%
same,Activity,MDA-MB-231 [13],Active
same,Activity,MDA-MB-436,Dose-Dependent Effect
same,Activity,[14],Non-Toxic
